Assay results: patent publication US20100076015A1, “Aminopyridine Derivatives” (VANTIA LIMITED, priority 2008, published 2010)

What was measured:
Type in all cases: biochemical
[1] = biological target: T1, Human KLK1 (Homo sapiens, UniProt P06870); test: Determination of the IC50 for KLK1 (fluorogenic substrate H-DVal-Leu-Arg-AFC); details: 37° C.
T1 construct: purchased Callbiochem (Calbiochem)
Method in brief: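 hKLK1 + H-DVal-Leu-Arg-AFC, 37° C, varied cpd conc. Initial rate by A410 change → residual activity → IC50.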

[2] = biological target: trypsin; test: Enzyme selectivity: trypsin (chromogenic substrate S-2222); details: human enzyme, chromogenic substrate S-2222, 37° C.
Method: (§1) Determination of Enzyme Selectivity
(§2) Selected compounds were further screened for inhibitory activity against other trypsin-like serine proteases using the appropriate enzyme and chromogenic substrate (Chromogenix AB). The activity against the following human enzymes was tested (substrate in brackets):—plasma kallikrein (S-2302), thrombin (S-2238), plasmin (S-2390) and trypsin (S-2222). The enzyme was incubated at 37° C. with the chromogenic substrate. Residual enzyme activity (initial rate of reaction) was determined by measuring the change in optical absorbance at 405 nm.

[3] = biological target: thrombin (Homo sapiens, UniProt P00734); test: Enzyme selectivity: thrombin (chromogenic substrate S-2238); details: chromogenic substrate S-2238, 37° C.
Method: as §1, §2

[4] = biological target: plasma kallikrein (Homo sapiens, UniProt P03952); test: Enzyme selectivity: plasma kallikrein (chromogenic substrate S-2302); details: chromogenic substrate S-2302, 37° C.
Method: as §1, §2

[5] = biological target: plasmin (Homo sapiens, UniProt P00747); test: Enzyme selectivity: plasmin (chromogenic substrate S-2390); details: chromogenic substrate S-2390, 37° C.
Method: as §1, §2

plasmin, sequence (P00747 581-810 limits assumed): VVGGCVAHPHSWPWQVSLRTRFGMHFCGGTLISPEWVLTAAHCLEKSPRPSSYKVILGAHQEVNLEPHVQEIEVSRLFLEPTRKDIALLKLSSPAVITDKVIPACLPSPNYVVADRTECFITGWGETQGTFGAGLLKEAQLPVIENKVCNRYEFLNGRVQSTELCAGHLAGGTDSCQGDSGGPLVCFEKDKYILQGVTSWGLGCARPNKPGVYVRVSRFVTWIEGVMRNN
plasmin, sequence (P00747 97-580 partner limits assumed): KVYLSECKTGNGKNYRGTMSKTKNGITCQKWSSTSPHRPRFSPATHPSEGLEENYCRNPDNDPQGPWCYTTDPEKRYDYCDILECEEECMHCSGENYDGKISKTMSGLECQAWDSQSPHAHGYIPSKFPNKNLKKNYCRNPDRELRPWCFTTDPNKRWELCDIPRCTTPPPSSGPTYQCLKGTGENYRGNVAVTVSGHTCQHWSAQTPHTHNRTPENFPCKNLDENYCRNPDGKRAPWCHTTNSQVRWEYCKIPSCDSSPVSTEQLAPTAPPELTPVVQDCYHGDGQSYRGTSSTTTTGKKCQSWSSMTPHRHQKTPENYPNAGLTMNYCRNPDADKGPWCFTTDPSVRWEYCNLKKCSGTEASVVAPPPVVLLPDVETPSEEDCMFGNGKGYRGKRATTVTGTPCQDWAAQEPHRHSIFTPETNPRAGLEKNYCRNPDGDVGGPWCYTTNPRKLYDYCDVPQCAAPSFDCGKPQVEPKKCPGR
plasma kallikrein, sequence (P03952 20-638): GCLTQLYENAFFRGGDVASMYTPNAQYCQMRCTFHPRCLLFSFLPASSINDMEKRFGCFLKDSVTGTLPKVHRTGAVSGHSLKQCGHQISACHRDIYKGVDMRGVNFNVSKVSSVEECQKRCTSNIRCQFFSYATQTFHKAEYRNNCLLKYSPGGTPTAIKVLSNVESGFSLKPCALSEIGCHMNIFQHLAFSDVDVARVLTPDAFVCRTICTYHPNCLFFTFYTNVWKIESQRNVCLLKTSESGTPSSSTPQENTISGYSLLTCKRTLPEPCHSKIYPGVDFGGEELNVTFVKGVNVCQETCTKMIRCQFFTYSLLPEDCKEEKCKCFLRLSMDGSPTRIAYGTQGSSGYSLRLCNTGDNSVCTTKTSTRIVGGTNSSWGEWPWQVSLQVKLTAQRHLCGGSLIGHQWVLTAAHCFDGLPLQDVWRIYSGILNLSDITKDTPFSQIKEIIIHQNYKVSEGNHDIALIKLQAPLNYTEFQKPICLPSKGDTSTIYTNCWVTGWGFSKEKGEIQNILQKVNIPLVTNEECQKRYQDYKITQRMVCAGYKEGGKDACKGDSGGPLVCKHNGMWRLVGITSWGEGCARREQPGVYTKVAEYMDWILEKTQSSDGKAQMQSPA
T1 sequence (P06870 25-262): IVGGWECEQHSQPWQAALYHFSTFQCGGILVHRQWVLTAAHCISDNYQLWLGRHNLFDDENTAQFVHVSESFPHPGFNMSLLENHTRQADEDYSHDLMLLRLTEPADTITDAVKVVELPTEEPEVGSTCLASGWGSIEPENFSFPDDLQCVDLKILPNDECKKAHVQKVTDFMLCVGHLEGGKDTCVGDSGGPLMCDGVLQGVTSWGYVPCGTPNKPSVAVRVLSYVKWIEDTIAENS

Row | SMILES | IC50 [1] | IC50 [2] | IC50 [3] | IC50 [4] | IC50 [5]
1 | CCC(C)[C@@H](N)C(=O)N[C@@H](Cc1cccc(F)c1)C(=O)NCc1ccc(N)nc1 (stereo partly drawn) [Example 29, (R)-2-Amino-3-methyl-pentanoic acid [(S)-1-[(6-amino-pyridin-3-ylmethyl)-carbamoyl]-2-(3-fluoro-phenyl)-ethyl]-amide] | 0.0102 µM | > 10 µM | > 10 µM | > 10 µM | > 10 µM
2 | CCC(C)[C@@H](N)C(=O)N[C@@H](CC1CCCC2CCCCC21)C(=O)NCc1ccc(N)nc1 (stereo partly drawn) [Example 2, (R)-2-Amino-3-methyl-pentanoic acid [(S)-1-[(6-amino-pyridin-3-ylmethyl)-carbamoyl]-2-(decahydro-naphthalen-1-yl)-ethyl]-amide] | 0.001 µM | > 10 µM | > 10 µM | > 10 µM | > 10 µM
3 | CN[C@H](Cc1ccccc1)C(=O)N[C@@H](Cc1ccc(Cl)c(Cl)c1)C(=O)NCc1ccc(N)nc1 [Example 60, (R)—N-[(S)-1-[(6-Amino-pyridin-3-ylmethyl)-carbamoyl]-2-(3,4-dichloro-phenyl)-ethyl]-2-methylamino-3-phenyl-propionamide] | 0.00071 µM | > 10 µM | > 10 µM | > 10 µM | > 10 µM
4 | CCC(C)[C@@H](NC)C(=O)N[C@@H](Cc1ccc(Cl)c(Cl)c1)C(=O)NCc1ccc(N)nc1 (stereo partly drawn) [Example 3, (R)-3-Methyl-2-methylamino-pentanoic acid [(S)-1-[(6-amino-pyridin-3-ylmethyl)-carbamoyl]-2-(3,4-dichloro-phenyl)-ethyl]-amide] | 0.00022 µM | > 10 µM | > 10 µM | > 10 µM | > 10 µM
5 | CCC(C)[C@@H](N)C(=O)N[C@@H](Cc1cccc2ccccc12)C(=O)NCc1ccc(N)nc1 (stereo partly drawn) [Example 1, (R)-2-Amino-3-methyl-pentanoic acid {(S)-1-[(6-amino-pyridin-3-ylmethyl)-carbamoyl]-2-naphthalen-1-yl-ethyl}-amide] | 0.00096 µM | > 10 µM | > 10 µM | > 10 µM | > 10 µM
6 | Nc1ccc(CNC(=O)[C@H](CC2CCCC3CCCCC32)NC(=O)c2ccc[nH]2)cn1 (stereo partly drawn) [Example 227, 1H-Pyrrole-2-carboxylic acid [(S)-1-[(6-amino-pyridin-3-ylmethyl)-carbamoyl]-2-(decahydro-naphthalen-1-yl)-ethyl]-amide] | 0.0053 µM | > 10 µM | > 10 µM | > 10 µM | > 10 µM
7 | CN1CCC[C@@H]1C(=O)N[C@@H](Cc1cccc(C(F)(F)F)c1)C(=O)NCc1ccc(N)nc1 [Example 91, (R)-1-Methyl-pyrrolidine-2-carboxylic acid [(S)-1-[(6-amino-pyridin-3-ylmethyl)-carbamoyl]-2-(3-trifluoromethyl-phenyl)-ethyl]-amide] | 0.0021 µM | > 10 µM | > 10 µM | > 10 µM | > 10 µM
8 | CCC(C)[C@@H](N)C(=O)N[C@@H](Cc1cccc(C)c1)C(=O)NCc1ccc(N)nc1 (stereo partly drawn) [Example 27, (R)-2-Amino-3-methyl-pentanoic acid {(S)-1-[(6-amino-pyridin-3-ylmethyl)-carbamoyl]-2-m-tolyl-ethyl}-amide] | 0.0025 µM | > 10 µM | > 10 µM | > 10 µM | > 10 µM
9 | CCC(C)[C@H](N)C(=O)N[C@@H](C(=O)NCc1ccc(N)nc1)C(C1CCCCC1)C1CCCCC1 (stereo partly drawn) [Example 11, (S)-2-Amino-3-methyl-pentanoic acid [(R)-1-[(6-amino-pyridin-3-ylmethyl)-carbamoyl]-2,2-dicyclohexyl-ethyl]-amide] | 0.0049 µM | > 10 µM | > 10 µM | > 10 µM | > 10 µM
